Assay results taken from PubChem BioAssay (NCI).
Several values for one entry are separate records, joined by “and”; a condition that tells them apart may be missing. Equal entries are not always repeated.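 48-hour exposure; five concentrations; linearly interpolated endpoints. Abbreviation: GI50, concentration required for 50% inhibition of growth. TGI marks complete inhibition of growth.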

What was measured:
Experiment in all cases: NCI tumour cell line growth inhibition, 48 h
BT-549 breast = system: BT-549 breast
MDA-MB-231 breast = system: MDA-MB-231 breast
SNB-19 CNS = system: SNB-19 CNS
M14 melanoma = system: M14 melanoma
UACC-257 melanoma = system: UACC-257 melanoma
COLO 205 colon = system: COLO 205 colon
NCI-H522 lung = system: NCI-H522 lung
SF-295 CNS = system: SF-295 CNS
SK-MEL-5 melanoma = system: SK-MEL-5 melanoma
HOP-92 NSCLC = system: HOP-92 NSCLC
T-47D breast = system: T-47D breast

O=c1[nH][nH]c(=O)n1Cc1ccccc1Cn1c(=O)[nH][nH]c1=O
TGI (BT-549 breast): > 100 µM | TGI (MDA-MB-231 breast): > 100 µM | TGI (SNB-19 CNS): > 100 µM | TGI (M14 melanoma): > 100 µM | TGI (UACC-257 melanoma): > 100 µM | TGI (COLO 205 colon): > 100 µM | TGI (NCI-H522 lung): > 100 µM | TGI (SF-295 CNS): > 100 µM | TGI (SK-MEL-5 melanoma): > 100 µM | TGI (HOP-92 NSCLC): > 100 µM | TGI (T-47D breast): > 100 µM

Clc1cc(OC2C3CC4CC(C3)CC2C4)nc(Cl)n1 (stereo unspecified)
TGI (BT-549 breast): 52.4 µM | TGI (MDA-MB-231 breast): 27.5 µM | TGI (SNB-19 CNS): > 100 µM | TGI (M14 melanoma): 32.5 µM | TGI (UACC-257 melanoma): 27.4 µM | TGI (COLO 205 colon): 34.2 µM | TGI (NCI-H522 lung): 27.1 µM | TGI (SF-295 CNS): 37.7 µM | TGI (SK-MEL-5 melanoma): 32.1 µM | TGI (HOP-92 NSCLC): 3.41 µM | TGI (T-47D breast): 53.4 µM

COc1ccc(CNc2nc(NCc3ccc(OC)c(OC)c3)nc(NC3CCCCC3)n2)cc1
TGI (BT-549 breast): > 100 µM | TGI (MDA-MB-231 breast): > 100 µM | TGI (SNB-19 CNS): > 100 µM | TGI (M14 melanoma): > 100 µM | TGI (UACC-257 melanoma): > 100 µM | TGI (COLO 205 colon): 21 µM | TGI (NCI-H522 lung): 5.74 µM | TGI (SF-295 CNS): > 100 µM | TGI (SK-MEL-5 melanoma): 7.41 µM | TGI (HOP-92 NSCLC): > 100 µM | TGI (T-47D breast): > 100 µM

Cc1c2cnccc2c(C)c2c1c1ccccc1n2CCCN
TGI (BT-549 breast): 2.85 µM | TGI (MDA-MB-231 breast): 0.439 µM | GI50 (SNB-19 CNS): 0.0945 µM | TGI (SNB-19 CNS): 2.19 µM and 0.781 µM | TGI (M14 melanoma): 0.91 µM | GI50 (UACC-257 melanoma): 0.633 µM | TGI (UACC-257 melanoma): 2.32 µM and 1.92 µM | GI50 (COLO 205 colon): 0.18 µM | TGI (COLO 205 colon): 0.986 µM and 0.629 µM | GI50 (NCI-H522 lung): 0.108 µM | TGI (NCI-H522 lung): 1.28 µM and 0.281 µM | GI50 (SF-295 CNS): 0.285 µM and 0.24 µM | TGI (SF-295 CNS): 0.865 µM and 1.24 µM | GI50 (SK-MEL-5 melanoma): 1.01 µM | TGI (SK-MEL-5 melanoma): 1.44 µM and 2.17 µM | GI50 (HOP-92 NSCLC): 0.776 µM | TGI (HOP-92 NSCLC): 1.22 µM and 2.14 µM | TGI (T-47D breast): 2.03 µM

O=C(CCC(=O)c1ccc(Cl)cc1)NO
TGI (BT-549 breast): > 100 µM | TGI (MDA-MB-231 breast): > 100 µM | TGI (SNB-19 CNS): > 100 µM | TGI (M14 melanoma): > 100 µM | TGI (UACC-257 melanoma): > 100 µM | TGI (COLO 205 colon): > 100 µM | TGI (NCI-H522 lung): > 100 µM | TGI (SF-295 CNS): > 100 µM | TGI (SK-MEL-5 melanoma): > 100 µM | TGI (HOP-92 NSCLC): > 100 µM | TGI (T-47D breast): > 100 µM

CC(C)C1/C(=N/O)CC(c2ccccc2)N(N=O)C1c1ccccc1 (stereo unspecified)
TGI (BT-549 breast): > 100 µM | TGI (MDA-MB-231 breast): > 100 µM | TGI (SNB-19 CNS): > 100 µM | TGI (M14 melanoma): > 100 µM | TGI (UACC-257 melanoma): > 100 µM | TGI (COLO 205 colon): 31 µM | TGI (NCI-H522 lung): > 100 µM | TGI (SF-295 CNS): > 100 µM | TGI (SK-MEL-5 melanoma): 95.9 µM | TGI (HOP-92 NSCLC): 78.6 µM | TGI (T-47D breast): 96.2 µM

COC(=O)[C@H]1CO[C@@H](C(C)(C)C)N1C(=O)N1C=CC(=O)C[C@@H]1C
TGI (BT-549 breast): > 100 µM | TGI (MDA-MB-231 breast): > 100 µM | TGI (UACC-257 melanoma): > 100 µM | TGI (COLO 205 colon): > 100 µM | TGI (NCI-H522 lung): > 100 µM | TGI (SF-295 CNS): > 100 µM | TGI (SK-MEL-5 melanoma): > 100 µM | TGI (HOP-92 NSCLC): > 100 µM | TGI (T-47D breast): > 100 µM

COc1ccc(C2c3cc4c(cc3OC(NNS(=O)(=O)c3ccc(C)cc3)C2C)OCO4)cc1 (stereo unspecified)
TGI (BT-549 breast): > 100 µM | TGI (MDA-MB-231 breast): > 100 µM | TGI (SNB-19 CNS): > 100 µM | TGI (M14 melanoma): > 100 µM | TGI (UACC-257 melanoma): > 100 µM | TGI (COLO 205 colon): > 100 µM | TGI (NCI-H522 lung): > 100 µM | TGI (SF-295 CNS): > 100 µM | TGI (SK-MEL-5 melanoma): > 100 µM | TGI (HOP-92 NSCLC): 85.3 µM | TGI (T-47D breast): > 100 µM

c1ccc(N=C2SC3=Nc4cccc5cccc(c45)N3C2=Nc2ccccc2)cc1
TGI (BT-549 breast): > 100 µM | TGI (MDA-MB-231 breast): > 100 µM | TGI (SNB-19 CNS): > 100 µM | TGI (M14 melanoma): > 100 µM | TGI (COLO 205 colon): > 100 µM | TGI (NCI-H522 lung): > 100 µM | TGI (SF-295 CNS): > 100 µM | TGI (SK-MEL-5 melanoma): > 100 µM | TGI (HOP-92 NSCLC): > 100 µM | TGI (T-47D breast): > 100 µM

CCC[C@@H](O)C[C@@H]1CCC[C@H](C[C@@H](O)CC)N1C
TGI (BT-549 breast): > 100 µM | TGI (MDA-MB-231 breast): > 100 µM | TGI (SNB-19 CNS): > 100 µM | TGI (M14 melanoma): > 100 µM | TGI (UACC-257 melanoma): > 100 µM | TGI (COLO 205 colon): > 100 µM | TGI (NCI-H522 lung): 30.7 µM | TGI (SF-295 CNS): > 100 µM | TGI (SK-MEL-5 melanoma): > 100 µM | TGI (HOP-92 NSCLC): 5.06 µM | TGI (T-47D breast): > 100 µM

O=c1[nH]cc(N=Cc2cc(Cl)cc(Cl)c2O)c(=O)[nH]1
TGI (BT-549 breast): 94.9 µM | TGI (MDA-MB-231 breast): > 100 µM | TGI (SNB-19 CNS): > 100 µM | TGI (M14 melanoma): 47.8 µM | TGI (UACC-257 melanoma): 83.8 µM | TGI (COLO 205 colon): 57.7 µM | TGI (NCI-H522 lung): 65.3 µM | TGI (SF-295 CNS): 96.1 µM | TGI (SK-MEL-5 melanoma): 42.6 µM | TGI (HOP-92 NSCLC): 89 µM | TGI (T-47D breast): 66.2 µM

CCCNC1=C2CC(C)CC(OC)[C@@H](O)[C@H](C)/C=C(\C)C(OC(N)=O)C(OC)/C=C\C=C(/C)C(=O)NC(=CC1=O)C2=O (stereo partly specified)
TGI (BT-549 breast): 42.1 µM | GI50 (MDA-MB-231 breast): 3.36 µM | TGI (MDA-MB-231 breast): 7.47 µM | TGI (SNB-19 CNS): > 100 µM | GI50 (UACC-257 melanoma): 0.318 µM | TGI (UACC-257 melanoma): 36.4 µM | GI50 (COLO 205 colon): 0.0141 µM | TGI (COLO 205 colon): 12.7 µM | GI50 (NCI-H522 lung): 0.361 µM | TGI (NCI-H522 lung): 28.6 µM | TGI (SF-295 CNS): 19.9 µM | GI50 (SK-MEL-5 melanoma): 0.0343 µM | TGI (SK-MEL-5 melanoma): 18.3 µM | GI50 (HOP-92 NSCLC): 16.8 µM | GI50 (T-47D breast): 1.15 µM | TGI (T-47D breast): 35 µM

CC(C)c1ccc(/C=C2/C=C(c3ccc4ccccc4c3)OC2=O)cc1
TGI (BT-549 breast): > 100 µM | TGI (MDA-MB-231 breast): > 100 µM | TGI (SNB-19 CNS): > 100 µM | TGI (M14 melanoma): > 100 µM | TGI (UACC-257 melanoma): 59.2 µM | TGI (COLO 205 colon): 76.1 µM | TGI (NCI-H522 lung): 23.5 µM | TGI (SF-295 CNS): > 100 µM | TGI (SK-MEL-5 melanoma): 29 µM | TGI (HOP-92 NSCLC): > 100 µM | TGI (T-47D breast): > 100 µM

CN1CCN([C@H]2C[C@H]3[C@@H]4CC=C5C[C@@H](O)CC[C@]5(C)[C@H]4CC[C@]3(C)C2=O)CC1
TGI (BT-549 breast): > 100 µM | TGI (MDA-MB-231 breast): > 100 µM | TGI (SNB-19 CNS): > 100 µM | TGI (M14 melanoma): > 100 µM | TGI (UACC-257 melanoma): > 100 µM | TGI (COLO 205 colon): > 100 µM | TGI (NCI-H522 lung): > 100 µM | TGI (SF-295 CNS): > 100 µM | TGI (SK-MEL-5 melanoma): > 100 µM | TGI (HOP-92 NSCLC): > 100 µM | TGI (T-47D breast): > 100 µM

COC(=O)c1cc2c(n1S(=O)(=O)c1ccc(C)cc1)C(=O)C(=O)c1[nH]cc(C(=O)OCc3ccccc3)c1-2
TGI (BT-549 breast): 0.334 µM | TGI (MDA-MB-231 breast): 0.168 µM | TGI (SNB-19 CNS): 0.441 µM | TGI (M14 melanoma): 0.167 µM | TGI (UACC-257 melanoma): 0.112 µM | TGI (COLO 205 colon): 0.433 µM | TGI (NCI-H522 lung): 0.48 µM | TGI (SF-295 CNS): 0.259 µM | TGI (SK-MEL-5 melanoma): 0.064 µM | TGI (HOP-92 NSCLC): 0.725 µM | TGI (T-47D breast): 0.975 µM

O=[N+]([O-])C(=C1NCCN1)/C(Cl)=C(\Cl)Br
TGI (BT-549 breast): > 96 µM | TGI (MDA-MB-231 breast): > 100 µM | TGI (SNB-19 CNS): > 100 µM | TGI (M14 melanoma): > 100 µM | TGI (UACC-257 melanoma): > 87.3 µM | TGI (COLO 205 colon): 42.6 µM | TGI (NCI-H522 lung): 44.6 µM | TGI (SF-295 CNS): > 100 µM | TGI (SK-MEL-5 melanoma): > 100 µM | TGI (HOP-92 NSCLC): > 62.2 µM | TGI (T-47D breast): 40.6 µM

C=C(Br)C(C)(Cl)CCC(Br)C(C)(C)Cl (stereo unspecified)
TGI (BT-549 breast): > 100 µM | TGI (MDA-MB-231 breast): > 100 µM | TGI (SNB-19 CNS): > 100 µM | TGI (M14 melanoma): > 100 µM | TGI (UACC-257 melanoma): 85 µM | TGI (COLO 205 colon): 64.6 µM | TGI (NCI-H522 lung): > 100 µM | TGI (SF-295 CNS): > 100 µM | TGI (SK-MEL-5 melanoma): > 100 µM | TGI (HOP-92 NSCLC): 95.6 µM | TGI (T-47D breast): > 100 µM
